From publication PMC12073248, “Tyrosinase Inhibitors Among Flora of Lubelskie Region—Application of Bio-Chromatographic Approach and Zebrafish Model in Bioactivity Screening of Plant Material” (Molecules, 2025)

These molecules were tested against T1, mushroom tyrosinase (Agaricus bisporus, UniProt C7FF04) (assay: Spectrophotometric tyrosinase inhibition assay with L-DOPA as substrate). Settings: standards 0.015 to 5.0 mg/mL.
Assay type: biochemical
Procedure: The inhibitory properties of the extracts against tyrosinase were evaluated using in an in vitro assay with the mushroom tyrosinase enzyme and L-DOPA as a substrate (Sigma Aldrich, St. Louis, MO, USA). The assay was performed based on the method by Uchida and colleagues [43]. Briefly, 100 µL of 100 mM phosphate buffer (pH 6.8) and 20 µL of the diluted extracts of studied plants (1 mg/mL solution in DMSO) were pipetted into a 96 well microwell. Afterwards, 20 μL of the mushroom tyrosinase (500 U/mL) dissolved in phosphate buffer (pH 6.8) was added to each microwell and the mixture was pre-incubated for 10 min at room temperature. After incubation, 80 µL of 8 mM L-DOPA was added and the reaction was initiated and sustained at 25 °C. After 20 min, the absorbance was measured at 450 nm using a microplate reader Promega GloMax Explorer GM 3510 (Madison, MO, USA). The control sample (with 100% tyrosinase activity) contained the appropriate volume of the solvent (100 µL buffer plus 20 µL DMSO) instead of the extract. In both assays, the dopachrome formation was measured spectrophotometrically at λ = 450 nm, using a Promega microplate reader. The obtained values were corrected by the absorbance value of the background that was measured for the extracts without the mushroom tyrosinase and L-DOPA. Each sample was analyzed in three independent repetitions. […]

T1 sequence (C7FF04 1-392): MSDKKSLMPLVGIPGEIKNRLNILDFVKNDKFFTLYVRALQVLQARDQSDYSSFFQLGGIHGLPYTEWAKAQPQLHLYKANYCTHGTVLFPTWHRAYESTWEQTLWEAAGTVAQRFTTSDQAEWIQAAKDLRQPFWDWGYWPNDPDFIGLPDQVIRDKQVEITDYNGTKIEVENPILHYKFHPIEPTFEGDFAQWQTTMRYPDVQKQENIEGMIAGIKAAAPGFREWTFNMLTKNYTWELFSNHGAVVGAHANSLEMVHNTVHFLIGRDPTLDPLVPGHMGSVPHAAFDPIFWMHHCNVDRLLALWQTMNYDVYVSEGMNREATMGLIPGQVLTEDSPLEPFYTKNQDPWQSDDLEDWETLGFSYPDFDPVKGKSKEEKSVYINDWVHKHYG

| Molecule | IC50 |
| --- | --- |
| COc1cc(/C=C/C(=O)O)ccc1O [ferulic acid, Ferulic acid] | 0.484 µM |

These molecules were tested against T1, mushroom tyrosinase (assay: Bio-chromatographic assay: HPLC-ESI-QTOF-MS/MS of extract with and without tyrosinase). Settings: aglycons in M. recutita extract; minute content, matrix effect.
Assay type: binding
Procedure: For the identification of single components responsible for interactions with tyrosinase enzymes, a bio-chromatographic assay was performed. For this purpose, two 0.5 mL portions of 1 mg/mL 50% EtOH extract of chamomile dissolved in water each were transferred to an Eppendorf vial of 2 mL. The sample coded as sample A was mixed with 0.5 mL of carbonate buffer prepared by dissolving 120 mg Na2CO3 and 12.5 mg NaHCO3 in 1000 mL of water and later diluted 40 times, whereas sample B was mixed with 0.5 mL of tyrosinase enzyme (500 U/mL) in the same carbonate buffer and diluted 40 times as sample A was.
Both samples A and B were filtered through nylon syringe filters (0.1 µm pore size) into autosampler vials and analyzed using an HPLC-ESI-QTOF-MS/MS instrument. The test was performed in triplicate. During the analysis of recorded data, the obtained chromatograms were subtracted from each other in the Mass Hunter Workstation Program to highlight the changes visible under the influence of the enzyme, and some of the potentially active components were tentatively identified thanks to high-resolution mass measurement, recorded MS/MS fragmentation patterns, and comparison with open mass databases (Metlin, HMDB, Mass Bank). Both injections—with and without the enzyme—were also compared using the Mass Profiler Professional Program (Agilent Technologies, Santa Clara, CA, USA). For this purpose, molecular feature extraction was carried out using the Profinder program v. 10.0.02 (Agilent Technologies, Santa Clara, CA, USA) to obtain a list of m/z values, retention times, and peak areas from the recorded injections, which were exported in profinder archive and detailed CSV formats for subsequent chemometric comparison. The data were filtered based on criteria including a mass tolerance of 10 ppm, retention time variation of 0.3 min, and a minimum peak area of 1% of the highest signal. The chemometric analysis performed directly within the program yielded 802 entities in positive ion mode and 715 in negative ion mode (p < 0.05), in a one-way ANOVA test with asymptotic p-value computation and Benjamini–Hochberg multiple testing correction.

| Molecule | Inhibitory properties in the bio-chromatographic assay |
| --- | --- |
| O=c1cc(-c2ccc(O)c(O)c2)oc2cc(O)cc(O)c12 [luteolin, Luteolin] | did not show inhibitory properties |
| O=c1cc(-c2ccc(O)cc2)oc2cc(O)cc(O)c12 [apigenin, Apigenin] | did not show inhibitory properties |

Same assay, conditions: mass chromatograms with and without enzyme

| Molecule | Peak height after reaction with tyrosinase |
| --- | --- |
| O=c1c(O[C@@H]2OC[C@H](O)[C@H](O)[C@H]2O)c(-c2ccc(O)cc2)oc2cc(O)cc(O)c12 [kaempferol arabinoside, Kaempferol-3-O-alpha-L-arabinoside] | marked decrease in the peak height |
| O=C(O)CC(=O)OC[C@H]1O[C@@H](Oc2c(-c3ccc(O)cc3)oc3cc(O)cc(O)c3c2=O)[C@H](O)[C@@H](O)[C@@H]1O [kaempferol malonylglucoside, Kaempferol 3-(6″-malonylglucoside)] | marked decrease in the peak height |

Same assay, conditions: negative ion mode; negative peak = decrease in intensity on reaction with the enzyme

| Molecule | Peak in subtracted chromatogram (extract with enzyme minus extract) |
| --- | --- |
| Feruloyl-glucose isomers | leading negative peak |
| Protocatechuoylglucose [protocatechuoyl-glucose] | visible negative peak |
| Feruloyl hexose | Large negative peaks |
| O=C(O)CC(O)(CC(=O)O)C(=O)O [citric acid, Citric acid] | Large negative peaks |
| O=C(O)[C@H](O)[C@@H](O)[C@H](O)[C@H](O)CO [gluconic acid, Gluconic acid] | Large negative peaks |
| O=C(O)CC(O)C(=O)O (centres unmarked) [malic acid, Malic acid] | Large negative peaks |

What follows are molecules tested against T1, mushroom tyrosinase in the same assay as above. Settings: chemometric comparison, p < 0.001.
Assay type: binding

| Molecule | Presence among m/z features differentiating extract before and after tyrosinase treatment |
| --- | --- |
| COc1cc(/C=C/C(=O)O)cc(OC)c1O [sinapic acid, Sinapic acid] | present on the list of the differentiating molecular features |
| O=C(/C=C/c1ccc(O)cc1)O[C@@H](C(=O)O)[C@@H](O)C(=O)O [coumaroyl-tartaric acid, p-Coumaroyltartaric acid] | present on the list of the differentiating molecular features |
| Syringetin glucoside | visible in the list of differentiating signals |
| O=C(O)CC(OC(=O)/C=C/c1ccc(O)c(O)c1)C(=O)O (centres unmarked) [caffeoylmalic acid, Caffeoylmalic acid] | present on the list of the differentiating molecular features |
| Isopropylmalic acid | present on the list of the differentiating molecular features |
| O=C(O)[C@]1(O)C[C@@H](O)[C@@H](O)[C@H](O)C1 [quinic acid, Quinic acid] | present on the list of the differentiating molecular features |
